Data as given in ChEMBL document CHEMBL6083260, “Dizocilpine derivatives as neuroprotective NMDA receptor antagonists without psychomimetic side effects” (Eur J Med Chem, 2024).
Activity calls are given as the source filed them. No cut-off for these calls is given here.

How the values were obtained:
[1] = target: T1, Glutamate NMDA receptor; GRIN1/GRIN2A (Homo sapiens, UniProt Q05586+Q12879); test: Antagonist activity at human GluN1/GluN2A receptor expressed in HEK293 cells assessed as inhibition of L-glutamate induced response at 3 uM at -60 mV membrane potential by patch clamp electrophysiology analysis; type: cell-based
[2] = target: T2, Glutamate NMDA receptor; GRIN1/GRIN2B (Homo sapiens, UniProt Q05586+Q13224); test: Antagonist activity at human GluN1/GluN2B receptor expressed in HEK293 cells assessed as inhibition of L-glutamate induced response at 3 uM at -60 mV membrane potential by patch clamp electrophysiology analysis; type: cell-based
[3] = Cytotoxicity against CHO-K1 cells assessed as reduction in cell viability incubated for 24 hrs by MTT assay; type: toxicity, cell-based; conditions: Chinese hamster (Cricetulus griseus)
[4] = Inhibition of human recombinant AChE measured by Ellman's method
[5] = target: T1, Glutamate NMDA receptor; GRIN1/GRIN2A; test: Antagonist activity at human GluN1/GluN2A receptor expressed in HEK293 cells assessed as inhibition of L-glutamate induced response at -40 mV membrane potential by patch clamp electrophysiology analysis; type: cell-based
[6] = target: T2, Glutamate NMDA receptor; GRIN1/GRIN2B; test: Antagonist activity at human GluN1/GluN2B receptor expressed in HEK293 cells assessed as inhibition of L-glutamate induced response at -40 mV membrane potential by patch clamp electrophysiology analysis; type: cell-based
[7] = target: T1, Glutamate NMDA receptor; GRIN1/GRIN2A; test: Antagonist activity at human GluN1/GluN2A receptor expressed in HEK293 cells assessed as inhibition of offset time constant at -60 mV membrane potential by patch clamp electrophysiology analysis relative to control; type: cell-based; conditions: filed as antagonist, dose 1.0 µM
[8] = Toxicity in male Wistar rat assessed as no observed adverse effect level (NOAEL) at 10 mg/kg, ip; type: organism-based; conditions: in vivo
[9] = Toxicity in male Wistar rat assessed as decrease respiration at 20 mg/kg, ip; type: organism-based; conditions: in vivo
[10] = Toxicity in male Wistar rat assessed as loss of activity at 20 mg/kg, ip; type: organism-based; conditions: in vivo
[11] = Toxicity in male Wistar rat assessed as locomotion at 1 to 10 mg/kg, ip incubated for 15 min by open field test; type: organism-based; conditions: in vivo, 0.25 h, dose 1-10 mg/kg
[12] = Toxicity in male Wistar rat assessed as effect on pre-pulse inhibition of acoustic startle response induced deficit at 1 to 10 mg/kg, ip by prepulse inhibition test; type: organism-based; conditions: in vivo, dose 1-10 mg/kg
[13] = target: T1, Glutamate NMDA receptor; GRIN1/GRIN2A; test: (§1) Antagonist activity at human GluN1/GluN2A receptor expressed in HEK293 cells assessed as inhibition of L-glutamate/glycine-induced steady state conditions of the current response at holding - 60 mV potential by measuring offset time constant at 1 to 100 uM incubated for 2 min followed by compound washout measured by patch clamp electrophysiology analysis; type: cell-based; conditions: filed as antagonist, dose 1-100 µM
[14] = target: T2, Glutamate NMDA receptor; GRIN1/GRIN2B; test: as §1, with “GluN1/GluN2B” for “GluN1/GluN2A”; type: cell-based; conditions: filed as antagonist, dose 1-100 µM
[15] = target: T1, Glutamate NMDA receptor; GRIN1/GRIN2A; test: as §1, with “onset” for “offset”; type: cell-based; conditions: filed as antagonist, dose 1-100 µM
[16] = target: T2, Glutamate NMDA receptor; GRIN1/GRIN2B; test: as §1, with “GluN1/GluN2B” for “GluN1/GluN2A”, “onset” for “offset”; type: cell-based; conditions: filed as antagonist, dose 1-100 µM
[17] = target: T1, Glutamate NMDA receptor; GRIN1/GRIN2A; test: Antagonist activity at human GluN1/GluN2A receptor expressed in HEK293 cells assessed as inhibition of L-glutamate induced response at -60 mV membrane potential by patch clamp electrophysiology analysis; type: cell-based
[18] = target: T2, Glutamate NMDA receptor; GRIN1/GRIN2B; test: Antagonist activity at human GluN1/GluN2B receptor expressed in HEK293 cells assessed as inhibition of L-glutamate induced response at -60 mV membrane potential by patch clamp electrophysiology analysis; type: cell-based
[19] = target: T1, Glutamate NMDA receptor; GRIN1/GRIN2A; test: Antagonist activity at human GluN1/GluN2A receptor expressed in HEK293 cells assessed as inhibition of […] response at 1 uM onset measured by patch clamp electrophysiology analysis; type: cell-based; conditions: filed as antagonist
[20] = test system: Rattus norvegicus; test: In vivo neuroprotective activity in NMDA-induced hippocampal lesion male Wistar rat model assessed as decrease in damage score at 30 uM; type: functional, organism-based
[21] = Toxicity in male Wistar rat assessed as hyperlocomotion at 0.2 mg/kg, ip incubated for 10 min by open field test; type: organism-based; conditions: in vivo
[22] = Toxicity in male Wistar rat assessed as effect on pre-pulse inhibition of acoustic startle response induced deficit at 0.3 mg/kg, ip mg/kg by prepulse inhibition test; type: organism-based; conditions: in vivo

Compound | inhibition ([1]; filed as antagonist) | inhibition ([2]; filed as antagonist) | IC50 at 24 h [3] | inhibition [1] | further results
c1ccc2c(c1)CCc1ccccc1C2NC1CCCCC1 | 79.4% | 86% | 85 µM |  | IC50 [4]: 14.4 µM
C1=Cc2ccccc2C(NC2CC2)c2ccccc21 | 45% | 57.2% | 260 µM |  | 
c1ccc2c(c1)CCc1ccccc1C2NC1CC1 | 40.1% | 53.6% | 177 µM |  | 
CN1CCN(C2c3ccccc3CCc3ccccc32)CC1 |  |  | 122 µM | 9.7% | inhibition [2]: 9.49%
COCCNC1c2ccccc2CCc2ccccc21 |  | 66.6% | 385 µM | 34.9% | 
CC(C)CNC1c2ccccc2CCc2ccccc21 | 76.8% | 91.6% | 92.4 µM |  | 
CCN1CCN(C2c3ccccc3CCc3ccccc32)CC1 |  |  | 147 µM | 7.64% | inhibition [2]: 5.22%
c1ccc2c(c1)CCc1ccccc1C2N1CCCCC1 |  |  | 73.8 µM | 5.4% | inhibition [2]: 5.2%
CC(C)CNC1c2ccccc2C=Cc2ccccc21.Cl | 93.2% | 91.8% | 102 µM |  | IC50 [5]: 22.4 µM; IC50 [6]: 11.7 µM; inhibition [7]: 99%; Activity [8]: Non-toxic; Activity [9]: Toxic; Activity [10]: Toxic; Activity [11]: Non-toxic; Activity [12]: Toxic; Activity [13]: Active; Compound Exhibited Slower Time Constant Offset Than 3L; Activity [14]: Active; Compound Exhibited Slower Time Constant Offset Than 3L; Activity [15]: Active; Activity [16]: Active
c1ccc2c(c1)CCc1ccccc1C2N1CCCC1 | 49.8% | 62.1% | 97.7 µM |  | 
C1=Cc2ccccc2C(N2CCOCC2)c2ccccc21 |  | 57.6% | 165 µM | 31.9% | 
OCCNC1c2ccccc2C=Cc2ccccc21 |  | 48.8% | 333 µM | 38.2% | 
CNC1c2ccccc2C=Cc2ccccc21 | 54.3% | 68.9% | 299 µM |  | 
C1=Cc2ccccc2C(NC2CCCCC2)c2ccccc21 | 92.1% | 92.4% | 81.3 µM |  | IC50 [4]: 8.5 µM
CCNC1c2ccccc2CCc2ccccc21 |  | 51.8% | 364 µM | 34% | 
CC(C)NC1c2ccccc2CCc2ccccc21 | 52.2% | 76.9% | 263 µM |  | 
CC(C)NC1c2ccccc2C=Cc2ccccc21 | 75.6% | 76% | 251 µM |  | 
CNC1(c2ccccc2Cl)CCCCC1=O (stereo not drawn) [KETAMINE] |  |  |  |  | IC50 [17]: 0.5 µM; IC50 [18]: 0.51 µM; IC50 [5]: 53.3 µM; IC50 [6]: 15.2 µM
CCN(CC)C1c2ccccc2CCc2ccccc21 | 68.4% | 75% | 86.4 µM |  | 
CCCCNC1c2ccccc2CCc2ccccc21 | 76.4% | 85.8% | 128 µM |  | 
CCNC1c2ccccc2C=Cc2ccccc21 |  | 59.9% | 498 µM | 39.9% | 
C1=Cc2ccccc2C(N2CCCC2)c2ccccc21 | 48.6% | 85.5% | > 900 µM |  | 
Cl.OCCNC1c2ccccc2CCc2ccccc21 | 48% | 49.7% | 720 µM |  | IC50 [5]: 276 µM; IC50 [6]: 215 µM; inhibition [7]: 99%; TIME [19]: 0.000112 h; Activity [8]: Non-toxic; Activity [9]: Toxic; Activity [10]: Toxic; Activity [11]: Non-toxic; Activity [12]: Toxic; Activity [20]: Active; Activity [15]: Active; Activity [16]: Active
C1=Cc2ccccc2C(N2CCCCC2)c2ccccc21 |  | 58.4% | 381 µM | 29.9% | 
CCCCNC1c2ccccc2C=Cc2ccccc21 | 81.1% | 79.2% | 101 µM |  | 
c1ccc2c(c1)CCc1ccccc1C2N1CCOCC1 |  |  | 95.2 µM | 6.78% | inhibition [2]: 3.43%
CNC1c2ccccc2CCc2ccccc21 | 82.3% | 71% | 410 µM |  | 
C[C@]12N[C@H](Cc3ccccc31)c1ccccc12 [DIZOCILPINE] |  |  |  |  | Activity [21]: Toxic; Activity [22]: Toxic
COCCNC1c2ccccc2C=Cc2ccccc21 |  | 60% | 390 µM | 35.6% | 
